This note sets out measurements from PubChem BioAssay (NCI).

Test systems include SR leukemia; PC-3 prostate; LOX IMVI melanoma; SK-MEL-2 melanoma; MDA-MB-231 breast; 786-0 renal; IGROV1 ovarian; MCF7 breast; OVCAR-4 ovarian; SN12C renal.
Holding throughout (test): inhibition of tumour cell growth, NCI panel, 48 h

SMILES strings stand for the structures.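 Tested at 5 concentrations; 48 h exposure; 96-well plates; endpoints linearly interpolated, else capped at highest concentration. At the TGI there is no net growth.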 A value given as a limit tells only on which side of the number the result lay.

For the molecule `COc1ccc(NC(=S)Nc2cc(C)ccn2)cc1`, the TGI in the test with SR leukemia, in the test with PC-3 prostate, in the test with LOX IMVI melanoma, with SK-MEL-2 melanoma, in the test on MDA-MB-231 breast and in the test on 786-0 renal was more than 100 µM each time. Further, the TGI with IGROV1 ovarian, in the test on MCF7 breast and in the test with OVCAR-4 ovarian was more than 100 µM throughout.

For `CC(=O)OCC1OC(NC(=S)Nn2c(=O)[nH]c3ccccc3c2=O)C(OC(C)=O)C(OC(C)=O)C1OC(C)=O` (centres undefined), the TGI with SR leukemia, in the test with PC-3 prostate, in the test on LOX IMVI melanoma, with SN12C renal, in the test with SK-MEL-2 melanoma and with MDA-MB-231 breast was more than 100 µM in each case. Also, the TGI with 786-0 renal, in the test on IGROV1 ovarian and in the test on MCF7 breast was more than 100 µM each time.

For `O=C(CP(=O)(c1ccccc1)c1ccccc1)c1cccc(C(=O)CP(=O)(c2ccccc2)c2ccccc2)c1`, the TGI in the test on SR leukemia, in the test with PC-3 prostate, in the test with SN12C renal, in the test on SK-MEL-2 melanoma, in the test with MDA-MB-231 breast and with 786-0 renal was more than 100 µM each time. Further, the TGI in the test with IGROV1 ovarian, with MCF7 breast and in the test on OVCAR-4 ovarian was more than 100 µM throughout.

`Cc1ccc(S(=O)(=O)NC(=O)NCc2ccc(S(N)(=O)=O)cc2)cc1`: the TGI in the test on SR leukemia, with PC-3 prostate, in the test on LOX IMVI melanoma, in the test with SK-MEL-2 melanoma, with MDA-MB-231 breast and with 786-0 renal was more than 100 µM in each case. Moreover, the TGI in the test with IGROV1 ovarian, with MCF7 breast and with OVCAR-4 ovarian was more than 100 µM in each case.

Consider `Cc1cn(C2OC(CO[Si](C)(C)C(C)(C)C)/C(=C\C#N)C2O[Si](C)(C)C(C)(C)C)c(=O)[nH]c1=O` (centres undefined), for which the TGI in the test on SR leukemia is more than 100 µM; in the test with PC-3 prostate, more than 100 µM; in the test with LOX IMVI melanoma, more than 100 µM; in the test with SN12C renal, more than 100 µM; in the test with SK-MEL-2 melanoma it was 37.1 µM; in the test with MDA-MB-231 breast it was more than 100 µM. Also, the TGI in the test on 786-0 renal, with MCF7 breast and in the test on OVCAR-4 ovarian was more than 100 µM throughout.

Regarding `COC(=O)/C(C)=N/NC(=S)SC`, the TGI in the test with SR leukemia, in the test with PC-3 prostate, in the test with LOX IMVI melanoma, in the test with SK-MEL-2 melanoma, in the test with MDA-MB-231 breast and in the test on 786-0 renal was more than 100 µM throughout. Besides, the TGI in the test on IGROV1 ovarian, with MCF7 breast and in the test with OVCAR-4 ovarian was more than 100 µM each time.

As for `COc1cccc(Nc2nc(C)c([N+](=O)[O-])c(Nc3cccc(OC)c3)n2)c1`, the TGI in the test on SR leukemia was more than 100 µM; with PC-3 prostate, more than 100 µM; in the test on LOX IMVI melanoma, more than 100 µM; in the test with SN12C renal, more than 100 µM; with SK-MEL-2 melanoma, 96.5 µM; with MDA-MB-231 breast it was more than 100 µM. In addition, the TGI in the test with 786-0 renal, with IGROV1 ovarian and in the test with MCF7 breast was more than 100 µM in each case.

Consider `Cc1nc(N)c(N2CCN(S(N)(=O)=O)CC2)c(=O)[nH]1`, for which the TGI in the test with SR leukemia, in the test with PC-3 prostate, in the test with LOX IMVI melanoma, in the test on SN12C renal, in the test with SK-MEL-2 melanoma and with MDA-MB-231 breast was more than 100 µM in each case. Besides, the TGI in the test on 786-0 renal, in the test with MCF7 breast and in the test on OVCAR-4 ovarian was more than 100 µM in each case.

For the molecule `O=C(CC(O)(C(F)(F)F)C(F)(F)F)C(c1ccccc1)C(O)(C(F)(F)F)C(F)(F)F` (centres undefined), the TGI with SR leukemia, in the test with PC-3 prostate, in the test with LOX IMVI melanoma, in the test on SK-MEL-2 melanoma, in the test on MDA-MB-231 breast and in the test on 786-0 renal was more than 100 µM each time. For the same molecule, the TGI with IGROV1 ovarian, with MCF7 breast and with OVCAR-4 ovarian was more than 100 µM each time.

Take `Cc1ccc2c(c1)C(=O)C1(C2)Cc2c(C)cccc2C1=O` (centres undefined): the TGI in the test with SR leukemia, in the test with PC-3 prostate, with LOX IMVI melanoma, in the test on SN12C renal, with MDA-MB-231 breast and with 786-0 renal was more than 100 µM throughout. The TGI in the test on IGROV1 ovarian, with MCF7 breast and with OVCAR-4 ovarian was more than 100 µM in each case.

For the molecule `O=C(Nc1ccc(Cl)cc1)c1cc(S(=O)(=O)Nc2n[nH]c(Nc3ccc4ccccc4c3)n2)c(SSc2cc(Cl)c(C(=O)Nc3ccc(Cl)cc3)cc2S(=O)(=O)Nc2n[nH]c(Nc3ccc4ccccc4c3)n2)cc1Cl`, the TGI in the test on SR leukemia is more than 68 µM; in the test with PC-3 prostate, 69.1 µM; in the test with LOX IMVI melanoma, 37.8 µM; in the test with SN12C renal, 59.2 µM; in the test with MDA-MB-231 breast, 46.5 µM; in the test with 786-0 renal, more than 94.3 µM. Besides, the TGI in the test on IGROV1 ovarian is 56.1 µM; in the test with MCF7 breast, more than 64 µM; in the test with OVCAR-4 ovarian it was 97.5 µM.
